Data as given in PubChem BioAssay (NCI).
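Following 48 hours of exposure in 96-well plates, responses at five concentrations were used to interpolate endpoints linearly. The concentration for 50% growth inhibition is given as GI50. At the TGI there is no net growth.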

Columns and labels:
Experiment in all cases: inhibition of tumour cell growth, NCI panel, 48 h; in the data active means GI50 below about 0.43 µM; inactive means the rest
786-0 renal = system: 786-0 renal
A498 renal = system: A498 renal
A549 NSCLC = system: A549 NSCLC
BT-549 breast = system: BT-549 breast
CCRF-CEM leukemia = system: CCRF-CEM leukemia
DU-145 prostate = system: DU-145 prostate
EKVX NSCLC = system: EKVX NSCLC
HCC-2998 colon = system: HCC-2998 colon
HCT-116 colon = system: HCT-116 colon
HL-60(TB) leukemia = system: HL-60(TB) leukemia
HOP-62 NSCLC = system: HOP-62 NSCLC
HOP-92 NSCLC = system: HOP-92 NSCLC
HS 578T breast = system: HS 578T breast
HT29 colon = system: HT29 colon
IGROV1 ovarian = system: IGROV1 ovarian
K-562 leukemia = system: K-562 leukemia
KM12 colon = system: KM12 colon
M14 melanoma = system: M14 melanoma
MALME-3M melanoma = system: MALME-3M melanoma
MCF7 breast = system: MCF7 breast
MDA-MB-231 breast = system: MDA-MB-231 breast
MOLT-4 leukemia = system: MOLT-4 leukemia
NCI-H226 lung = system: NCI-H226 lung
NCI-H460 lung = system: NCI-H460 lung
NCI-H522 lung = system: NCI-H522 lung
NCI/ADR-RES ovarian = system: NCI/ADR-RES ovarian
OVCAR-4 ovarian = system: OVCAR-4 ovarian
OVCAR-5 ovarian = system: OVCAR-5 ovarian
OVCAR-8 ovarian = system: OVCAR-8 ovarian
PC-3 prostate = system: PC-3 prostate
RPMI-8226 leukemia = system: RPMI-8226 leukemia
RXF 393 renal = system: RXF 393 renal
SF-268 CNS = system: SF-268 CNS
SF-539 CNS = system: SF-539 CNS
SK-MEL-2 melanoma = system: SK-MEL-2 melanoma
SK-MEL-28 melanoma = system: SK-MEL-28 melanoma
SK-MEL-5 melanoma = system: SK-MEL-5 melanoma
SN12C renal = system: SN12C renal
SNB-75 CNS = system: SNB-75 CNS
SW-620 colon = system: SW-620 colon
TK-10 renal = system: TK-10 renal
UACC-257 melanoma = system: UACC-257 melanoma
UACC-62 melanoma = system: UACC-62 melanoma
UO-31 renal = system: UO-31 renal

CSC1=NCC2(S1)c1ccccc1N(C(=O)OC(C)(C)C)C2N1CCCCC1 (stereo not drawn)
> 100 µM: TGI (786-0 renal) | TGI (A498 renal) | TGI (A549 NSCLC) | TGI (BT-549 breast) | TGI (CCRF-CEM leukemia) | TGI (DU-145 prostate) | TGI (EKVX NSCLC) | TGI (HCC-2998 colon) | TGI (HCT-116 colon) | TGI (HL-60(TB) leukemia) | TGI (HOP-62 NSCLC) | TGI (HOP-92 NSCLC) | TGI (HS 578T breast) | TGI (HT29 colon) | TGI (IGROV1 ovarian) | TGI (K-562 leukemia) | TGI (KM12 colon) | TGI (M14 melanoma) | TGI (MALME-3M melanoma) | TGI (MCF7 breast) | TGI (MDA-MB-231 breast) | TGI (MOLT-4 leukemia) | TGI (NCI-H226 lung) | TGI (NCI-H460 lung) | TGI (NCI-H522 lung) | TGI (NCI/ADR-RES ovarian) | TGI (OVCAR-4 ovarian) | TGI (OVCAR-5 ovarian) | TGI (OVCAR-8 ovarian) | TGI (PC-3 prostate) | TGI (RPMI-8226 leukemia) | TGI (RXF 393 renal) | TGI (SF-268 CNS) | TGI (SF-539 CNS) | TGI (SK-MEL-2 melanoma) | TGI (SK-MEL-28 melanoma) | TGI (SK-MEL-5 melanoma) | TGI (SN12C renal) | TGI (SW-620 colon) | TGI (TK-10 renal) | TGI (UACC-257 melanoma) | TGI (UACC-62 melanoma) | TGI (UO-31 renal)
88.4 µM: TGI (SNB-75 CNS)
inactive: GI50 (786-0 renal) 16.2 µM | GI50 (A498 renal) > 100 µM | GI50 (A549 NSCLC) > 100 µM | GI50 (BT-549 breast) > 100 µM | GI50 (CCRF-CEM leukemia) > 100 µM | GI50 (DU-145 prostate) > 100 µM | GI50 (EKVX NSCLC) > 100 µM | GI50 (HCC-2998 colon) 31 µM | GI50 (HCT-116 colon) 40.6 µM | GI50 (HL-60(TB) leukemia) 63.7 µM | GI50 (HOP-62 NSCLC) 23.4 µM | GI50 (HOP-92 NSCLC) 51.5 µM | GI50 (HS 578T breast) 81.8 µM | GI50 (HT29 colon) > 100 µM | GI50 (IGROV1 ovarian) > 100 µM | GI50 (K-562 leukemia) 73.8 µM | GI50 (KM12 colon) > 100 µM | GI50 (M14 melanoma) > 100 µM | GI50 (MALME-3M melanoma) 15.3 µM | GI50 (MCF7 breast) > 100 µM | GI50 (MDA-MB-231 breast) 41.8 µM | GI50 (MOLT-4 leukemia) > 100 µM | GI50 (NCI-H226 lung) > 100 µM | GI50 (NCI-H460 lung) 69.6 µM | GI50 (NCI-H522 lung) 27.5 µM | GI50 (NCI/ADR-RES ovarian) > 100 µM | GI50 (OVCAR-4 ovarian) > 100 µM | GI50 (OVCAR-5 ovarian) > 100 µM | GI50 (OVCAR-8 ovarian) > 100 µM | GI50 (PC-3 prostate) 34.7 µM | GI50 (RPMI-8226 leukemia) > 100 µM | GI50 (RXF 393 renal) 78 µM | GI50 (SF-268 CNS) 74.4 µM | GI50 (SF-539 CNS) > 100 µM | GI50 (SK-MEL-2 melanoma) > 100 µM | GI50 (SK-MEL-28 melanoma) > 100 µM | GI50 (SK-MEL-5 melanoma) > 100 µM | GI50 (SN12C renal) > 100 µM | GI50 (SNB-75 CNS) 31.7 µM | GI50 (SW-620 colon) > 100 µM | GI50 (TK-10 renal) > 100 µM | GI50 (UACC-257 melanoma) > 100 µM | GI50 (UACC-62 melanoma) 76.6 µM | GI50 (UO-31 renal) 78.7 µM
